Activity calls are given as the source filed them. No cut-off for these calls is given here.
Columns and labels:
[1] = tested on: EAT; experiment: Inhibition of VEGF secretion in EAT cells bearing Swiss Albino mouse at 100 mg/kg after 6 days by VEGF ELISA; format: functional, organism-based; design: dose 100 mg/kg
[2] = tested on: EAT; experiment: Antiangiogenic activity against EAT cells bearing Swiss Albino mouse assessed as cell number at 100 mg/kg after 12 days by trypan blue dye exclusion method; format: functional, organism-based; design: dose 100 mg/kg
[3] = tested on: EAT; experiment: Antiangiogenic activity against EAT cells bearing Swiss Albino mouse assessed as ascites volume at 100 mg/kg after 12 days; format: functional, organism-based; design: dose 100 mg/kg
[4] = tested on: EAT; experiment: Antiangiogenic activity against EAT cells bearing Swiss Albino mouse by CAM assay; format: functional
[5] = tested on: EAT; experiment: Antiangiogenic activity against EAT cells bearing Swiss Albino mouse assessed as microvasculature at 100 mg/kg after 6 days by peritoneal angiogenesis assay; format: functional, organism-based; design: dose 100 mg/kg
[6] = Antiangiogenic activity against swiss albino mouse EAT cells assessed as decrease in body weight at 100 mg/kg after 6 days; format: functional; design: scale not given: the % may be the effect or the level left

CCOc1ccccc1C(=O)Nc1ccccc1Oc1ccc(Cl)cc1NC(=O)c1ccccc1OCC
Activity [1]: Active | Activity [2]: Active | Activity [3]: Active | Activity [4]: Active | Activity [5]: Active | Activity [6]: 65%

Source: ChEMBL document CHEMBL1147916, “2-(2-(2-Ethoxybenzoylamino)-4-chlorophenoxy)-N-(2-ethoxybenzoyl)benzamine inhibits EAT cell induced angiogenesis by down regulation of VEGF secretion” (2007)
